For two compounds, IC50 results are on record in publication PMC7753922, “Effect of the anti-parasitic compounds pyrvinium pamoate and artemisinin in enzymatic and culture assays: Data on the search for new anti-echinococcal drugs” (Data in Brief, 2020).

Format in all cases: biochemical
For test [1], the target named is T1, mitochondrial complex I (NADH-ubiquinone reductase; NADH-decyl rhodoquinone reductase) (Echinococcus multilocularis, UniProt Q9TE76).
T1 construct: gene ND1; native multi-subunit complex I in freeze-thawed enriched mitochondrial fraction of protoscoleces; not purified
T1 sequence (Q9TE76 1-297): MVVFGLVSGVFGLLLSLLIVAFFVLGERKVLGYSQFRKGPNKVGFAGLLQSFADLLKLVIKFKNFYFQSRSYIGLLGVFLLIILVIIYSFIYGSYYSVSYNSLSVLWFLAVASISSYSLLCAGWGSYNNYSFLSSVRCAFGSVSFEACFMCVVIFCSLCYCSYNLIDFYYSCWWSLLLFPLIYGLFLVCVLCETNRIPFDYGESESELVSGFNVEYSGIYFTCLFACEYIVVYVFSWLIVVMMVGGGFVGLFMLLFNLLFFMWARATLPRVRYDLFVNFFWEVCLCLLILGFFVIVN
T1 sequence (A0A068Y9L9 30-218 partner): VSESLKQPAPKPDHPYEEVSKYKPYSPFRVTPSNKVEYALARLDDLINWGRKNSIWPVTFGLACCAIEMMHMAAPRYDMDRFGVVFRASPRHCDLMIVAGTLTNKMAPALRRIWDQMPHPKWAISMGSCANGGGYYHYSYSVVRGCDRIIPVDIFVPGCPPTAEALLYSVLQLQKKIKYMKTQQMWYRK
T1 sequence (A0A068YF50 31-207 partner): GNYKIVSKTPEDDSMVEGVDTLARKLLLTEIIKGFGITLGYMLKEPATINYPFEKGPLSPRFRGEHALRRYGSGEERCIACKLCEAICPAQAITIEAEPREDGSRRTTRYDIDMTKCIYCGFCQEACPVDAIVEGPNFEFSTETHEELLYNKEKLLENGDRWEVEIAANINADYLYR
Kind of test: spectrophotometric NADH-quinone reductase assay, mitochondrial fraction. The following applies: quinone acceptor decyl rhodoquinone (methods; table heads it NADH-ubiquinone reductase), 30 mM potassium phosphate, 1 mM MgCl2, pH 7.5, 25 °C. An excerpt: spectrophotometric NADH-quinone reductase assay, mitochondrial fraction on mitochondrial complex I (NADH-ubiquinone reductase; NADH-decyl rhodoquinone reductase)

The target of test [2] is T2, mitochondrial complex II (succinate-quinone reductase, SQR) (Echinococcus multilocularis, UniProt A0A1Z4EAV8+A0A1Z4EAW8+A0A1Z4EAX0+A0A1Z4EAX1).
T2 construct: gene SDHB1; native complex II in freeze-thawed enriched mitochondrial fraction of protoscoleces; not purified
T2 sequence (A0A1Z4EAX0 21-272): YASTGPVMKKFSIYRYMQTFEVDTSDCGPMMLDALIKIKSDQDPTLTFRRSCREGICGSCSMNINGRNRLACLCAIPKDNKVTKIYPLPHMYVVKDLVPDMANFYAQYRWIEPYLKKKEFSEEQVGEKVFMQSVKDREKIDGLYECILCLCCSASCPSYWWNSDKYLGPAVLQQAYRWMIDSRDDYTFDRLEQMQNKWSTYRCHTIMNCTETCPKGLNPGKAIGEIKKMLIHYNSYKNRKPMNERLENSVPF
T2 sequence (A0A1Z4EAX1 53-194): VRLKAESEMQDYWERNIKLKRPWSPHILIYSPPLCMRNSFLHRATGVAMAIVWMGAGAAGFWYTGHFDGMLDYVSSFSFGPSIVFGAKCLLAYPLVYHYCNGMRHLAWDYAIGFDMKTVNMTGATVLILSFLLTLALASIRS
T2 sequence (A0A1Z4EAW8 47-153): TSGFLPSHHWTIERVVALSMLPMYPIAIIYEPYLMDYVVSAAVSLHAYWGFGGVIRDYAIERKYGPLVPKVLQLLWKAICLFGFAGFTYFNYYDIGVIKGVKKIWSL
T2 sequence (A0A1Z4EAV8 26-648): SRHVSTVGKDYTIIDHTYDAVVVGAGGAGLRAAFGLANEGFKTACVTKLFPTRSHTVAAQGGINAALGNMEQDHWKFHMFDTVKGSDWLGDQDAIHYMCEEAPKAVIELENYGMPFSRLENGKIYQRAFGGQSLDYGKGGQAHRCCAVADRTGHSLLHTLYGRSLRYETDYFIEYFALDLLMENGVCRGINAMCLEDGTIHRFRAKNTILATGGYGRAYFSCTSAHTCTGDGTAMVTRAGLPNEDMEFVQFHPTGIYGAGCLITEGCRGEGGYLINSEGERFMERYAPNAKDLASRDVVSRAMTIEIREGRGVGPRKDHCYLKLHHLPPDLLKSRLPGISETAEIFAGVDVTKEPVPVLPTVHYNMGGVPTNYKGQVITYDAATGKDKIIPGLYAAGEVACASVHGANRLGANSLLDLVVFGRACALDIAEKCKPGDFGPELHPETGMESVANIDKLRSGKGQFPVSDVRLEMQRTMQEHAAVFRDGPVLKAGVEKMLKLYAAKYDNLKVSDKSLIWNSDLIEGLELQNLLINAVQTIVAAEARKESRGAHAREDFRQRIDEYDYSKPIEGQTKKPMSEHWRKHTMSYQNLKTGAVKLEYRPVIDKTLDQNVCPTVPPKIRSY
As to the kind of experiment: spectrophotometric succinate-quinone reductase assay, mitochondrial fraction. To be noted: 30 mM potassium phosphate, 1 mM MgCl2, pH 7.5, 25 °C. An excerpt:
spectrophotometric succinate-quinone reductase assay, mitochondrial fraction on mitochondrial complex II (succinate-quinone reductase, SQR)

Test [3] deals with T3, succinate-cytochrome c reductase (mitochondrial complexes II and III) (Echinococcus multilocularis, UniProt Q9TE80).
T3 construct: gene Cytb; coupled activity of native complexes II and III in freeze-thawed enriched mitochondrial fraction of protoscoleces; not purified; with Succinate dehydrogenase [ubiquinone] flavoprotein subunit, mitochondrial; Succinate dehydrogenase [ubiquinone] iron-sulfur subunit, mitochondrial; Succinate dehydrogenase [ubiquinone] cytochrome b large subunit, mitochondrial; Succinate dehydrogenase [ubiquinone] cytochrome b small subunit, mitochondrial
T3 sequence (Q9TE80 1-355): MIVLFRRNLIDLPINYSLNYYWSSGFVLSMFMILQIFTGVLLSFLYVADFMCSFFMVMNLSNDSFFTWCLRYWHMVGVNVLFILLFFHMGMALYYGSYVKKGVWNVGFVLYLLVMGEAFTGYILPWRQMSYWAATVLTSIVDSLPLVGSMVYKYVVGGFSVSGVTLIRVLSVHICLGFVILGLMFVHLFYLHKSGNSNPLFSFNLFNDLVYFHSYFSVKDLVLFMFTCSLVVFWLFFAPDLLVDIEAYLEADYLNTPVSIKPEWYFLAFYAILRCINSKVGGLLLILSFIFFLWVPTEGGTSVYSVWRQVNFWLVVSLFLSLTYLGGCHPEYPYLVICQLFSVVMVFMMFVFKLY
T3 sequence (Q9GP40 whole entry partner): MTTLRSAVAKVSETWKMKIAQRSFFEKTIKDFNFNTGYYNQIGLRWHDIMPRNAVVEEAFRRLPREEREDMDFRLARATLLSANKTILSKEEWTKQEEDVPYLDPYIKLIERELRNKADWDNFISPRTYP
T3 sequence (A0A1Z4EAV8 26-648 partner): as the sequence (A0A1Z4EAV8 26-648) above
T3 sequence (A0A1Z4EAX0 21-272 partner): as the sequence (A0A1Z4EAX0 21-272) above
T3 sequence (A0A1Z4EAX1 53-194 partner): as the sequence (A0A1Z4EAX1 53-194) above
T3 sequence (A0A1Z4EAW8 47-153 partner): as the sequence (A0A1Z4EAW8 47-153) above
Kind of test: spectrophotometric succinate-cytochrome c reductase assay, mitochondrial fraction. The following applies: coupled complex II and III activity, 30 mM potassium phosphate, 1 mM MgCl2, pH 7.5, 25 °C. An excerpt:
spectrophotometric succinate-cytochrome c reductase assay, mitochondrial fraction on succinate-cytochrome c reductase (mitochondrial complexes II and III)

[4] abbreviates: read-out: Succinate-quinone reductase: SQR / (Complex II).
Where [5] appears, read: read-out: NADH-ubiquinone reductase / (Complex I).

Where two headings read alike, the source gives them in different places.

Take `Cc1cc(/C=C/c2ccc3cc(N(C)C)ccc3[n+]2C)c(C)n1-c1ccccc1` [pyrvinium pamoate]: the IC50 in test [1] is 11 ± 0.3 µM; in test [2] (setting [4]) it was > 30 µM; in test [3] (setting [4]) it was > 30 µM.
As to `C[C@@H]1CC[C@H]2[C@@H](C)C(=O)O[C@@H]3O[C@@]4(C)CC[C@@H]1[C@]32OO4` [artemisinin], the IC50 in test [1], in test [2] (setting [5]) and in test [3] (setting [5]) was > 40 µM in each case.
